Data published in publication PMC10572522, “A Designed Analog of an Antimicrobial Peptide, Crabrolin, Exhibits Enhanced Anti-Proliferative and In Vivo Antimicrobial Activity” (International Journal of Molecular Sciences, 2023).
Residues, ends and D or L forms follow the SMILES beside them.

Columns and labels:
[1] = tested on: P. aeruginosa (ATCC 9027); assay: Antimicrobial susceptibility assay (MIC/MBC); format: cell-based, Pseudomonas aeruginosa; conditions: for MIC: MHB, 37 °C, 20 h
Procedure: (§1) Six bacteria were tested in this experiment to detect the antimicrobial effects of crabrolin and its derivatives, including S. aureus (NCTC 10788), MRSA (NCTC 12493), E. coli (ATCC 8739), K. pneumoniae (ATCC 43816), E. faecium (NTCC-12697), and P. aeruginosa (ATCC 9027). The tested bacteria were cultured in Mueller Hinton broth medium (MHB) with norfloxacin (20 mg/L) as a positive control. All bacteria were incubated at 37 °C overnight and diluted to 5 × 10^5 CFU/mL before treating with the peptides. Stock solutions of 51,200 µM peptides were prepared in phosphate-buffered saline (PBS) and further diluted by a factor of two to 100 µM. Next, 1 µL of each peptide solution was mixed with 99 µL of bacterial subculture in a 96-well plate, and the plate was incubated at 37 °C for 20 h. After culturing, the absorbance of each well in the 96-well plate was analyzed at 550 nm using a Synergy HT plate reader (BioliseBioTek, Winooski, VT, USA). […] Starting with the MIC value, 10 µL of the solution from each well was dripped onto Mueller Hinton agar (MHA) plates. The plates were cultured at 37 °C for 20 h. After culturing, the lowest concentration with no colony growth was regarded as the MBC.

[2] = tested on: E. faecium (NTCC12697) biofilm; format: cell-based, Enterococcus faecium; conditions: for MBIC: biofilm inhibitory rate more than 90%; for MBEC: eradication rate greater than 99.9%
Procedure: (§2) To measure the antibiofilm activity of crabrolin and its derivatives, four drug-resistant biofilm-forming strains, MRSA (NCTC 12493), K. pneumoniae (ATCC 43816), E. faecium (NTCC-12697), and P. aeruginosa (ATCC 9027), were used in this assay. Tryptic soy broth (TSB) (for the Gram-positive bacteria) and Luria–Bertani broth (LB) (for the Gram-negative bacteria) were used to culture the bacteria.
(§3) The mass of the biofilm in this assay was detected by the crystal violet staining method. First, 100 μL of 5 × 10^5 CFU/mL bacteria was incubated with 1 μL of different peptide solutions (ranging from 51200 μM to 100 μM) for 24 h at 37 °C with 200 rpm shaking. After the biofilm formation, 100 μL of PBS was used to rinse the biofilm twice. Next, 100 µL of methanol was added to fix the biofilm, and the biofilm was then dried. Thereafter, 100 μL of 0.1% crystal violet was added and left to stain for 15 min, and then the excess crystal violet was further rinsed by PBS. After the plate had air-dried, 30% glacial acetic acid was added to each well of the plate, and the plate was shaken for 15 min before the optical density (OD) value was measured at 595 nm using a Synergy HT plate reader. The MBIC value refers to the minimum concentration at which the biofilm inhibitory rate was more than 90%.
(§4) Different from measuring the MBIC value, to determine the MBEC value, 100 μL of the bacteria was first added to 96-well plates. After the biofilm was formed, the biofilm was rinsed with PBS twice to remove the planktonic cells, and then different concentrations of the drugs were added to the biofilm (the same as the MBIC assay). The mixture was incubated at 37 °C with shaking at 200 rpm. After 24 h of incubation, the mass of the biofilm was measured in the same way as the MBIC value, and the minimum concentration at which the eradication rate was greater than 99.9% was considered to be the MBEC value.

[3] = tested on: MRSA (NCTC 12493); assay: Antimicrobial susceptibility assay (MIC/MBC); format: cell-based, methicillin-resistant Staphylococcus aureus; conditions: for MIC: MHB, 37 °C, 20 h
Procedure: as §1

[4] = tested on: P. aeruginosa (ATCC 9027) biofilm; format: cell-based, Pseudomonas aeruginosa; conditions: for MBIC: biofilm inhibitory rate more than 90%; for MBEC: eradication rate greater than 99.9%
Procedure: as §2, §3, §4

[5] = tested on: MRSA (NCTC 12493) biofilm; format: cell-based, methicillin-resistant Staphylococcus aureus; conditions: for MBIC: biofilm inhibitory rate more than 90%; for MBEC: eradication rate greater than 99.9%
Procedure: as §2, §3, §4

[6] = tested on: E. coli (ATCC 8739); assay: Antimicrobial susceptibility assay (MIC/MBC); format: cell-based, Escherichia coli; conditions: for MIC: MHB, 37 °C, 20 h
Procedure: as §1

[7] = tested on: K. pneumoniae (ATCC 43816); assay: Antimicrobial susceptibility assay (MIC/MBC); format: cell-based, Klebsiella pneumoniae; conditions: for MIC: MHB, 37 °C, 20 h
Procedure: as §1

[8] = Hemolysis assay; format: cell-based, horse; conditions: horse, erythrocytes (2% suspension); at the peptide's maximum MIC; relative to Triton X-100; read-out: Hemolysis under the Maximum MIC
Procedure: (§5) According to the procedures described in detail in a previous study, the debris and impurities of the erythrocytes were washed with PBS in advance to yield 2% of the erythrocyte suspension, and the drug concentration was diluted from 1024 µM to 2 µM with PBS [53]. The same amounts of the drug and the erythrocyte suspension were mixed and cultured at 37 °C for 2 h; 0.1% Triton X-100 (Sigma-Aldrich, St. Louis, MO, USA) was prepared as a positive control, and PBS was prepared as a negative control. After the incubation, the supernatant was transferred to a 96-well plate and then detected using a Synergy HT plate reader at 570 nm.

[9] = tested on: horse erythrocytes; assay: Hemolysis assay; format: cell-based; conditions: erythrocytes, 37 °C, 2 h
Procedure: as §5

[10] = tested on: K. pneumoniae (ATCC 43816) biofilm; format: cell-based, Klebsiella pneumoniae; conditions: for MBIC: biofilm inhibitory rate more than 90%; for MBEC: eradication rate greater than 99.9%
Procedure: as §2, §3, §4

[11] = tested on: human non-small-cell lung cancer line H838; assay: Anti-proliferative assay (MTT); format: cell-based; conditions: 24 h
Procedure: (§6) The human non-small-cell lung cancer line, H838, the human prostate carcinoma cell line, PC-3, the human glioblastoma astrocytoma, U251MG, the human breast cancer cell line, MCF-7, the human colorectal carcinoma cell line, HCT116, and the human keratinocyte cell line, HaCaT, were used to detect the anti-proliferative effects of the crabrolin and its derivatives in vitro. A total of 8000 cells were seeded in each well of a 96-well plate. After the cells had adhered to the wall, the cells were starved for 4 h. After the starvation, the cells were incubated with different concentrations of the drugs, ranging from 100 µM to 1 nM, for 24 h, with 0.1% Triton X-100 used as a positive control. Next, 10 µL of MTT (3-(4,5-dimethylthiazol-2-yl)-2,5-diphenyltetrazolium bromide) solution (5 mg/mL) was added to each well of the 96-well plate. After 2 h of incubation, 100 μL of DMSO-superseded medium was added to each well to dissolve the formazan crystals. Finally, the absorbance was detected using a Synergy HT plate reader at 570 nm.

[12] = tested on: human prostate carcinoma cell line PC-3; assay: Anti-proliferative assay (MTT); format: cell-based; conditions: PC3, MTT, 24 h
Procedure: as §6

[13] = tested on: human breast cancer cell line MCF-7; assay: Anti-proliferative assay (MTT); format: cell-based; conditions: MCF-7, MTT, 24 h
Procedure: as §6

[14] = tested on: human glioblastoma astrocytoma U251MG; assay: Anti-proliferative assay (MTT); format: cell-based; conditions: 24 h
Procedure: as §6

[15] = tested on: human keratinocyte cell line HaCaT; assay: Anti-proliferative assay (MTT); format: cell-based; conditions: HaCaT (normal keratinocytes), 24 h
Procedure: as §6

[16] = tested on: human colorectal carcinoma cell line HCT-116; assay: Anti-proliferative assay (MTT); format: cell-based; conditions: HCT-116, MTT, 24 h
Procedure: as §6

[17] = tested on: S. aureus (NCTC 10788); assay: Antimicrobial susceptibility assay (MIC/MBC); format: cell-based, Staphylococcus aureus; conditions: for MIC: MHB, 37 °C, 20 h
Procedure: as §1

[18] = tested on: E. faecium (NTCC 12697); assay: Antimicrobial susceptibility assay (MIC/MBC); format: cell-based, Enterococcus faecium; conditions: for MIC: MHB, 37 °C, 20 h
Procedure: as §1

Compound | MBC [1] | MIC [1] | MBIC [2] | MBEC [2] | MBC [3] | MIC [3] | MBIC [4] | MBEC [4] | MBIC [5] | MBEC [5] | MBC [6] | MIC [6] | MBC [7] | MIC [7] | hemolysis at 2 h [8] | HC10 (10% hemolytic concentration) [9] | HC50 (50% hemolytic concentration) [9] | MBIC [10] | MBEC [10] | IC50 [11] | other results
CC[C@H](C)[C@H](NC(=O)[C@H](CCCCN)NC(=O)[C@@H]1CCCN1C(=O)[C@H](CC(C)C)NC(=O)[C@@H](N)Cc1ccccc1)C(=O)N[C@@H](CC(C)C)C(=O)N[C@@H](CCCNC(=N)N)C(=O)N[C@@H](CCCCN)C(=O)N[C@H](C(=O)N[C@H](C(=O)N[C@H](C(=O)N[C@@H](C)C(=O)N[C@@H](CC(C)C)C(N)=O)[C@@H](C)O)C(C)C)[C@@H](C)CC [Crabrolin-4K, FLPKILRKIVTAL-NH2] (H-FLPKILRKIVTAL-NH2) | 32 µM | 16 µM | 16 µM | > 512 µM | 16 µM | 8 µM | 512/512 µM | 512/512 µM | 16 µM | 128 µM | 8 µM | 4 µM | 32 µM | 16 µM | 10.4% | 68.628 µM | 217.816 µM | 16 µM | 256 µM | 22.6 µM | IC50 [12]: 20.6 µM; IC50 [13]: 23.2 µM; IC50 [14]: 23.5 µM; IC50 [15]: 32.6 µM; IC50 [16]: 42.9 µM; MBC [17]: 4 µM; MIC [17]: 2 µM; MBC [18]: 64 µM; MIC [18]: 32 µM
CC[C@H](C)[C@H](NC(=O)[C@H](CCCNC(=N)N)NC(=O)[C@@H]1CCCN1C(=O)[C@H](CC(C)C)NC(=O)[C@@H](N)Cc1ccccc1)C(=O)N[C@@H](CC(C)C)C(=O)N[C@@H](CCCNC(=N)N)C(=O)N[C@@H](CCCCN)C(=O)N[C@H](C(=O)N[C@H](C(=O)N[C@H](C(=O)N[C@@H](C)C(=O)N[C@@H](CC(C)C)C(N)=O)[C@@H](C)O)C(C)C)[C@@H](C)CC [Crabrolin-4R, FLPRILRKIVTAL-NH2] (H-FLPRILRKIVTAL-NH2) | 16 µM | 16 µM | 16 µM | > 512 µM | 8 µM | 4 µM | 128 µM | 256 µM | 8 µM | 64 µM | 4 µM | 4 µM | 8 µM | 8 µM | 6.18% | 62.117 µM | 216.266 µM | 16 µM | 128 µM | 11.4 µM | IC50 [12]: 18 µM; IC50 [13]: 20.3 µM; IC50 [14]: 25.1 µM; IC50 [15]: 35.8 µM; IC50 [16]: 47 µM; MBC [17]: 4 µM; MIC [17]: 2 µM; MBC [18]: 32 µM; MIC [18]: 16 µM
